Converted amounts (≈) assume the structure as drawn. Read-outs that look alike come from different tables or passages of the source. Where a SMILES comes first, the peptide text is derived from it. The star is where a group is joined. pNA = O=[N+]([O-])c1ccc(N*)cc1; Bz = O=C(c1ccccc1)*

For one series, the system named is thrombin. Briefly: Relative reaction velocity between thrombin and chromogenic substrate (p-nitroaniline release, 405 nm). It counts as biochemical. The note with it: for Rel. reaction velocity: thrombin 0.4 NIH/ml, substrate 0.1 μmol/ml, relative, S-2160 = 100. An excerpt:
The substrates prepared according to the examples are used for determination of thrombin as stated below.
The determination principle is based upon the fact that the splitting product formed by enzymatic hydrolysis has a UV-spectrum which is essentially different from that of the substrate. Thus, the substrate according to Example X, H--D--Phe--Pip--Arg--pNA, has an absorption maximum at 315 nm and the molar extinction coefficient of 12500. At 405 nm the absorption of the substrate has almost completely stopped. p-Nitroaniline, split off from the substrate during the enzymatic hydrolysis, has an absorption maximum at 380 nm and a molar extinction coefficient of 13200 which at 405 nm only had decreased to 9620. By spectrophotometrical determination at 405 nm it is thus possible to easily follow the amount of p-nitroaniline formed, which is proportional to the degree of the enzymatic hydrolysis which in its turn is determined by the active amount of thrombin. For other substrates according to the invention rather identical conditions exist and for this reason the determinations have consistently been made at 405 nm.
They react 4 times more rapidly with thrombin than the previously best substrate, S-2160, and are further about 10 times more soluble in water than S-2160.
Relative reactions velocity between thrombin (0.4 NIH/ml) and substrate (0.1 μmol/ml).

The next series in a line: Solubility in water. In kind it is physicochemical.
[1] abbreviates: water, Table I, in H2O, read-out: Solubility in H2O.

For the molecule `N=C(N)NCCC[C@H](NC(=O)[C@@H]1CCCCN1C(=O)[C@H](N)Cc1ccccc1)C(=O)Nc1ccc([N+](=O)[O-])cc1` [Example X, H--D--Phe--Pip--Arg--pNA.2HCl], the Rel. reaction velocity in the series on thrombin turned out to be 420. Further, the solubility – broadly, the dissolved amount per volume that the medium holds – in the series “Solubility in water” (setting [1]) worked out at 3000 µg/mL.
Turning to `N=C(N)NCCC[C@H](NC(=O)[C@@H]1CCCCN1C(=O)[C@@H](N)Cc1ccccc1)C(=O)Nc1ccc([N+](=O)[O-])cc1` [XI, H--Phe--Pip--Arg--pNA.2HCl], in the series on thrombin, the Rel. reaction velocity was 9. Moreover, the solubility in the series “Solubility in water” (setting [1]) turned out to be 1000 µg/mL.
On to `CC(C)[C@H](NC(=O)[C@@H](N)Cc1ccccc1)C(=O)N[C@@H](CCCNC(=N)N)C(=O)Nc1ccc([N+](=O)[O-])cc1` [B, H-Phe-Val-Arg-pNA, reference compound] (H-Phe-Val-Arg-pNA), for which, in the series on thrombin, the Rel. reaction velocity came out at 3. Further, the “decrease of the velocity with which thrombin splits the substrate” value in the series with thrombin (versus S-2160 (benzoyl replaced with H)) is recorded as “about 30 times”. Moreover, the solubility in “Solubility in water” (setting [1]) amounted to 1000 µg/mL (≈ 1850 µM).
For `CC(C)[C@H](NC(=O)[C@H](Cc1ccccc1)NC(=O)c1ccccc1)C(=O)N[C@@H](CCCNC(=N)N)C(=O)Nc1ccc([N+](=O)[O-])cc1` [Example S-2160, Bz-Phe-Val-Arg-pNA, reference compound] (Bz-Phe-Val-Arg-pNA), the Rel. reaction velocity with thrombin is reported as 100. The solubility in the series “Solubility in water” (medium not stated, read-out: solubility) worked out at 1000 µg/mL (≈ 1550 µM); in the series “Solubility in water” (setting [1]), 100 µg/mL (≈ 155 µM). Moreover, the “solubility compared with S-2160 (in words)” value in the series “Solubility in water” (versus S-2160) was “considerably more soluble”.
In the series with thrombin, `N=C(N)NCCC[C@H](NC(=O)[C@@H]1CCCN1C(=O)[C@H](N)Cc1ccccc1)C(=O)Nc1ccc([N+](=O)[O-])cc1` [VIII, H--D--Phe--Pro--Arg--pNA.2HCl] came in with a Rel. reaction velocity of 400. Moreover, the solubility in the series “Solubility in water” (setting [1]) came out at 3000 µg/mL.
The like results for `N=C(N)NCCC[C@H](NC(=O)[C@@H]1CCCN1C(=O)[C@@H](N)Cc1ccccc1)C(=O)Nc1ccc([N+](=O)[O-])cc1` [IX, H--Phe--Pro--Arg--pNA.2HCl] were, in that order, 15 and 1000 µg/mL.

These data come from US4169015A, “Novel chromogenic thrombin substrates” (AB Kabi, priority 1975, dated 1979).
